Columns and labels:
Experiment in all cases: ABTS oxidation at […] nm, Lineweaver-Burk
Format in all cases: biochemical, Klebsiella pneumoniae
laccase (NITW715076_1) = system: T1, laccase (NITW715076_1); conditions: 0.1 M citrate buffer pH 5.0, optimum temperature (50 °C); methods call the enzyme partially purified; read-out: Laccase / K m
T1 construct: gene lac; native extracellular enzyme from culture supernatant; ammonium sulphate, dialysis, DEAE-sepharose; 66 kDa by SDS-PAGE; gene not identified

laccase (NITW715076_2) = system: T2, laccase (NITW715076_2); conditions: 0.1 M citrate buffer pH 5.0, optimum temperature (60 °C); methods call the enzyme partially purified; read-out: Laccase / K m
T2 construct: gene lac; native extracellular enzyme from culture supernatant; ammonium sulphate, dialysis, DEAE-sepharose; 66 kDa by SDS-PAGE; gene not identified

laccase (NITW715076) = system: T3, laccase (NITW715076); conditions: 0.1 M citrate buffer pH 5.0, optimum temperature (50 °C); methods call the enzyme partially purified; read-out: Laccase / K m
T3 construct: gene lac; native extracellular enzyme from culture supernatant; ammonium sulphate, dialysis, DEAE-sepharose; 66 kDa by SDS-PAGE; gene not identified

CCn1c(=NN=c2sc3cc(S(=O)(=O)O)ccc3n2CC)sc2cc(S(=O)(=O)O)ccc21 [ABTS, 2,2′-azino-bis(3-ethylbenzothiazoline)-6-sulfonic acid]
Km (laccase (NITW715076_1)): 3970 µM | Km (laccase (NITW715076_2)): 380 µM | Km (laccase (NITW715076)): 467 µM

From publication PMC9080042, “Biochemical and kinetic characterization of laccase and manganese peroxidase from novel Klebsiella pneumoniae strains and their application in bioethanol production” (RSC Advances, 2018)
